The values below are quoted from earlier work in patent US20090042781A1, “Methods for Treating Diabetes” (Novo Nordisk A/S, priority 2004, published 2009).

The conditions of data set [1]: administered by gastric gavage.
For data set [2] the following is noted: injected into dogs.

On to `CC(C)(Oc1ccc(C2CC2(Cl)Cl)cc1)C(=O)O` (stereo not drawn) [ciprofibrate], for which, in data set [1], the serum gastrin level entry is given as “increase”.

Take Exendin-4: in data set [2], the blood glucose level result is recorded as “lowering of the blood glucose level” and the insulin release result is on record as “stimulate insulin release”.
